One experiment deals with T1, EphB2 (Homo sapiens, UniProt P29323).
T1 construct: expressed in transfected cells; host or cells: HEK 293T
T1 sequence (P29323 19-1055): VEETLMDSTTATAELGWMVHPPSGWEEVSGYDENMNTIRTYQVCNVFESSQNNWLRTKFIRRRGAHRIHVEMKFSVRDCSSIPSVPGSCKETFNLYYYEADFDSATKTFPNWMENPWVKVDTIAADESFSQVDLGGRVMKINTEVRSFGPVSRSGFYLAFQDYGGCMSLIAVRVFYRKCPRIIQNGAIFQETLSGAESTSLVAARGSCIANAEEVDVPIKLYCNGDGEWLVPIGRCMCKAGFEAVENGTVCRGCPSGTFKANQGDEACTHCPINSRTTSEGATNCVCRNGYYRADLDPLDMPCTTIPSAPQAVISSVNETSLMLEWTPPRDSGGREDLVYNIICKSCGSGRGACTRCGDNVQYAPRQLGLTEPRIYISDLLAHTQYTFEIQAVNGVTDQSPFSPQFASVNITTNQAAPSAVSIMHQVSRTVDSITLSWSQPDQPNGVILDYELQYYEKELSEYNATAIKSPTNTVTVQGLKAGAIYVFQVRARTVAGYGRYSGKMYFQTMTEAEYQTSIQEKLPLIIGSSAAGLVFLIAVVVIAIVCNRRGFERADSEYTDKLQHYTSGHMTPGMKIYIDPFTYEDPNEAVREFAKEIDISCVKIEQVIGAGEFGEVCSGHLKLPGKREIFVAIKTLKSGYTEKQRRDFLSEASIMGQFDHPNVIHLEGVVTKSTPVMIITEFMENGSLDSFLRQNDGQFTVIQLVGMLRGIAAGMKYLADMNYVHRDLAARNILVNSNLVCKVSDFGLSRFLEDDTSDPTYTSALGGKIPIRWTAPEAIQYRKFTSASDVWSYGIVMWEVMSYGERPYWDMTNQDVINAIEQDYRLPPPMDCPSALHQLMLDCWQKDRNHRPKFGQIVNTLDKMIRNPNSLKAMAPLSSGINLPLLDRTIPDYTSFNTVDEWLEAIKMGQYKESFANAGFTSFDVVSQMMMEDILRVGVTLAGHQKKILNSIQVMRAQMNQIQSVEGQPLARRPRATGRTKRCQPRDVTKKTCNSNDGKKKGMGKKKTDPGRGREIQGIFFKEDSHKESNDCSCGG
As to the kind of experiment: EphB2 kinetics imaging in HEK 293T cells transfected with GPhosEphB and EphB2. The format is cell-based. The conditions noted are these: Disassociation rate of EphB2 receptor after Genistien treatment (10 μm). On the procedure:
(§1) Cells were imaged in ACSF on a spinning disk confocal (PerkinElmer) encased in a humidified temperature controlled incubator attached to a CCD-EM camera (Hamamatsu). Images were taken as a […] z-projection ([…] step size) every 20 seconds. After a 2 minute baseline, cells were treated and imaged with either DyLight 649 (Jackson Immunoresearch) labeled EphrinB2-FC or DyLight 649 labeled EphrinA1-FC (both at 500 ng/ml) for 15 minutes. Before continuing the experiment, bath was exchanged with fresh ASCF. Genistien (10 μm; Calbiochem) was added to previously imaged cells after a 2 minute baseline and imaged for an additional 15 minutes. Images were collected via Volocity software and analyzed using NIH ImageJ as detailed below.
(§2) Image analysis was conducted off-line using NIH ImageJ using both custom and standard macros. […] Ratio change was calculated as DF/F=(F−F0)/F0 (Yuste and Konnerth, 2005). Significance between conditions was determined by two-way ANOVA with Bonferroni post-hoc tests. Receptor “on” kinetics were calculated as one-phase association, and “off” kinetics were calculated as one-phase decay. All statistical measures were conducted using GraphPad Prism version 5.00 (GraphPad Software, San Diego, Calif.) on a per coverslip basis with several cells analyzed per coverslip from a minimum of three independent experiments. […]

A further experiment addresses T2, EphA4 (Homo sapiens, UniProt P54764).
T2 construct: expressed in transfected cells; host or cells: HEK 293T
The experiment in a line: EphA4 kinetics imaging in HEK 293T cells transfected with GPhosEphA and EphA4. The experiment is classed as cell-based. The conditions noted are these: Disassociation rate of EphA4 receptor after Genistien treatment (10 μm). The protocol: as §1, §2

Data on one compound can be found in patent US9012617B2, “Detection reagents for tyrosine kinase activity and methods of use thereof” (The Trustees of The University of Pennsylvania, priority 2011, dated 2015).

T2 sequence (P54764 20-986, species assumed): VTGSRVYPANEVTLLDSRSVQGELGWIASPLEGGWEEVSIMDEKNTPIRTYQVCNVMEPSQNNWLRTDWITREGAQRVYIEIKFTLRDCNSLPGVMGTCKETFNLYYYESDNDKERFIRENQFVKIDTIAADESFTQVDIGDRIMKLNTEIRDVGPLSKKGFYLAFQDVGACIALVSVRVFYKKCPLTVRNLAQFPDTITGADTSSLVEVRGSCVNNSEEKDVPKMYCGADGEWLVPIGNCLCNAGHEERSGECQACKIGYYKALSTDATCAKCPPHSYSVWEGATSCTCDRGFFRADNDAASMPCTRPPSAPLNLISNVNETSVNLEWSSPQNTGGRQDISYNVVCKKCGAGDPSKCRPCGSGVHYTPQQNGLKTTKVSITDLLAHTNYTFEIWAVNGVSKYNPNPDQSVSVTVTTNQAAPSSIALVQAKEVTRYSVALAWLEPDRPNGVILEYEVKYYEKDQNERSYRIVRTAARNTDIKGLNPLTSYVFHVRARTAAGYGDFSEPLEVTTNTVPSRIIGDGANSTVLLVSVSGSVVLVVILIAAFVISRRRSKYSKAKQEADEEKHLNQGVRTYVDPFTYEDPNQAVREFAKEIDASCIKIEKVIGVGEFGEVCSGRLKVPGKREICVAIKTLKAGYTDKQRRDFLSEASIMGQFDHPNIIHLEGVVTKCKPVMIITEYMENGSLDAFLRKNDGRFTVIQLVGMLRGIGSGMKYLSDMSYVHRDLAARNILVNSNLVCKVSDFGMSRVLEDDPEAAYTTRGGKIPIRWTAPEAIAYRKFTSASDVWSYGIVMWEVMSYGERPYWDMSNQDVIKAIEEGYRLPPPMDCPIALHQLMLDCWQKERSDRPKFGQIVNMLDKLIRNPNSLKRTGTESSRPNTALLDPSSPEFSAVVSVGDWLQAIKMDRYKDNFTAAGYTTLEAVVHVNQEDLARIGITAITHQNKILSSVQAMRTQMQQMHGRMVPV

Consider `O=c1c(-c2ccc(O)cc2)coc2cc(O)cc(O)c12` [Genistein], for which the figures for the “One phase decay Tau” value at EphB2 and at EphA4 were 1.588 and 0.8484, respectively.
